According to publication PMC9704104, “Towards safer anti-inflammatory therapy: synthesis of new thymol–pyrazole hybrids as dual COX-2/5-LOX inhibitors” (Journal of Enzyme Inhibition and Medicinal Chemistry, 2022):
Where “and” joins values, the source holds several entries; their conditions need not be identical. Equal entries are not always repeated. Where two headings read alike, the source gives them in different places. Marks after values point to notes of the source that are not given here.

How the values were obtained:
[1] = test system: formalin-induced rat paw oedema; test: Formalin-induced paw oedema test (acute inflammation model); format: in vivo; details: for inhibition in vivo at 5 mg/kg: Rattus norvegicus; for % Relative potency (4h) diclofenac, Mean ± SD / % Relative potency (4h) diclofenac: relative to % inhibition of diclofenac at 4 h
Experimental: Animals Adult female albino rats weighing 150-250 g were used (Experimental Animal Centre in Alexandria University). All animals accessed to food and water ad libitum and were housed in 12 h dark/light cycle in a controlled condition at 23-250C. They were allowed to acclimatize for 1 week prior to experimentation. Procedures involving animals and their care were conducted in conformity with the Guide for the Care and Use of Laboratory Animals published by US National Institute of Health4 (NIH publication No. 83-23, revised) and following the ethical guidelines of Alexandria University on laboratory animals. In all tests, adequate considerations were adopted to reduce pain or discomfort of animals (Approved by AlexU-IACUC) 3. […]
Formalin-induced paw edema test (acute inflammation model):
A solution of freshly prepared formalin 5% was used as a phlogistic agent. A mark was made on the lateral malleolus of the rats’ paws delineating the injection sites. The initial volume of paw was measured by means of digital calibrated Vernier caliper .
After 45 minutes, 40 μl formalin were injected subcutaneously into the sub plantar tissue of the right hind paw of all groups under light ether anesthesia . An equal volume of saline was injected into the left hind paw and served as internal control for the degree of inflammation in the right hind paw. 5, 6 The volume of paw was measured in different treatment groups, 4 h following the formalin injection and the amount of increase in paw volume (edema volume) was calculated by subtracting the volumes before and 4 h after the injection of formalin. Edema was expressed as an increase in the volume of paw, and the percentage of edema inhibition (or percent protection against inflammation) for each rat and each group was calculated according to the following equation: […]
Where Vt is the mean volume of edema at specific time interval (4 h) and Vo is the mean volume of edema […]
Relative potency of the tested compounds was expressed as % inhibition of edema for the tested compounds

gastric mucosa = test: In vivo gastric ulcerogenic activity (gross examination of gastric mucosa); details: fasted rats, 60 mg/kg orally, six hours after treatment
Experimental: Compounds were evaluated for acute gastric ulcerogenic effect in adult female Wistar rats. Gross examination was performed for any evidence of hyperaemia, haemorrhage, definite haemorrhagic erosion, or ulcer according to reported procedures[49]^,[51]
Compounds were evaluated for acute gastric ulcerogenic effect in adult female Wistar rats. Rats (150–250 g)
were divided into groups of six rats each and test compounds, references or DMSO as control were
administered orally at a dose of 60 mg/kg body weight (three times the previously used dose). Six hours after
the treatment they were sacrificed under deep ether anesthesia and their stomachs were removed and opened
through greater curvature, washed under running water and fixed in saline solution. Gross examination was
performed for any evidence of hyperemia, hemorrhage, definite hemorrhagic erosion or ulcer 6, 7 (Approved
The degree of ulcerogenicity was determined by viewing the gastric epithelial ulceration using a 5x
magnifying lens and rated by ulcer score.
Ulcer score was used to grade the incidence and severity of the lesions such as:
1) Shedding of epithelium—10
2) Petechial and frank hemorrhages—20
4) More than two ulcers—40

5-LOX = test: In vitro 5-LOX inhibitory assay (Abnova 5-LOX inhibitor screening assay kit); format: biochemical
From the text: The newly synthesised compounds were screened for their ability to inhibit 5-LOX enzymes. […] (Page: S21, Supplementary file). […]
In vitro LOX inhibitory assay
Inhibitor Screening Assay Kit detects and measures the hydroperoxides produced in the lipoxygenation reaction using a purified LOX. The detection reaction is equally sensitive to hydroperoxides at various positions within the fatty acid and will work with fatty acids of any carbon length. It is thus a general detection method for 5-LOX and can be used to screen libraries of compounds for those which inhibit 5 -LOX enzymes.
1) Blank Wells- add 100 µL of assay buffer to at least two wells.
2) Positive Control Wells- Lipoxygenase (15-LO standard) add 90 µL 15-LO and 10 µL of assay buffer […]
3) 100% Initial Activity Wells- add 90 µL 15-LO and 10 µL of solvent (DMSO) (the same solvent to dissolve the inhibitor) to two wells. The 100% initial activity wells should result in approximately 10 […]
4) Inhibitor Wells- add 90 µL of sample and I10 µL of inhibitor to two wells.
5) Initiate the reaction by adding 10 µL of substrate (either arachidonic acid or linoleic acid) to all the wells. Place the 96-well plate on a shaker for at least five minutes.
6) Add 100 µL of chromogen to each well to stop enzyme catalysis and develop the reaction. Cover with a plate cover and place the 96-well plate on a shaker for at least five minutes.
7) Remove the cover and read the absorbance at 490-500 nm using a plate reader.
Inhibitors were dissolved in DMSO. The inhibitors were added to the assay in a final volume of 10 µL before initiating with substrate. Three concentrations were prepared (25, 50 and 100 µM) to determine the concentration produced 50% enzyme inhibition.
2) The absorbance of blank wells was subtracted from absorbance of the 100% Initial activity and the […]

COX-1 = target: T1, COX-1 (Ovis aries, UniProt P05979); test: In vitro COX-1 inhibitory assay (Cayman colorimetric COX (ovine) inhibitor screening assay kit); format: biochemical; details: mean of three replicates ± SD
T1 construct: purchased Cayman chemicals 560131
T1 sequence (P05979 25-600): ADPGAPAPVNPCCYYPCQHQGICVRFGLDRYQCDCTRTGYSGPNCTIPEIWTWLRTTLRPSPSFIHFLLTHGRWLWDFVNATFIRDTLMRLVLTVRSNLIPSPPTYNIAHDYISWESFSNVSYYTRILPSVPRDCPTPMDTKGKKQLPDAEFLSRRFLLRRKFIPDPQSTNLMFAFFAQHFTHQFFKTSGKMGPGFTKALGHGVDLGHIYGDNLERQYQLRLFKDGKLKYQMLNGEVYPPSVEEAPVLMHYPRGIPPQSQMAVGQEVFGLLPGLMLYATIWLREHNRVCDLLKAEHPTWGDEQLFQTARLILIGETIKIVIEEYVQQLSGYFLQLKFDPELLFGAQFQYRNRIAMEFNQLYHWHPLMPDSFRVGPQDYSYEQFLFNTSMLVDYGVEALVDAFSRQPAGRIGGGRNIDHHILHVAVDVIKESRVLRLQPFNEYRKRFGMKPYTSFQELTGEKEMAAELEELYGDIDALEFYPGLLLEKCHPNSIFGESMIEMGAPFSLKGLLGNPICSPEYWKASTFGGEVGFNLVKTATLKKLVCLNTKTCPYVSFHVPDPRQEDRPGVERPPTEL
Experimental: (Page: S20, Supplementary file).
Anti-inflammatory activity
In vitro COX-1 and COX-2 inhibitory assay […]
supplied by Cayman chemicals, Ann Arbor, MI, USA according to reported method 1. The colorimetric COX inhibitor screening assay utilizes the peroxidase component of cyclooxygenase. The peroxidase activity was assayed calorimetrically by monitoring the appearance of oxidized N,N,N',N'-tetramethyl-1,4-phenylenediamine (TMPD) at 590nm. The appearance of reagent was carried out following the instructions […]
The half- maximal inhibitor concentrations (IC50µM) were determined and the selectivity index (SI) values were calculated as IC50 (COX-1)/IC50 (COX-2).
1) Background wells- 160 µL of assay buffer and 10 µL of heme were added to background wells.
2) The 100% Initial activity wells- 150 µL of assay buffer, 10 µL of heme and 10 µL of enzyme (COX-1 or COX-2) were added.
3) Inhibitor well- 150 µL of assay buffer, 10 µL of heme and 10 µL of enzyme were added.
4) 10 µL of inhibitor (3 concentrations) in DMSO was added to the inhibitor wells to yield a final […]
5) 10 µL of solvent (DMSO) was added to the 100% Initial activity wells and background wells.
7) 20 µL of colorimetric substrate solution (TMPD) was added to all wells.
8) 20 µL of arachidonic acid was added to all wells to yield a final concentration of 100 µM.
10) The absorbance was measured at 590 nm using a plate reader.
The calculations were carried out in the following manner:
1) The average absorbance of all samples was determined.
2) The absorbance of background wells was subtracted from absorbance of the 100% Initial activity […]
3) Percent inhibition = (100% Initial activity – Inhibitor wells/ 100% Initial activity)∗ 100 […]
Place the 96-well plate on a shaker for at least five minutes. […]

[2] = po, 4 h, individual rats 1-3, 5 mg/kg orally, read-out: % Inhibition of oedema volume
[3] = relative to % inhibition of celecoxib at 4 h, individual rats 1-3

IC50 (5-LOX) | IC50 (COX-1) | SMILES | % Inhibition of oedema volume, Mean ± SD ([1]; 4 h, group mean ± SD, 5 mg/kg orally) | Abs diff., Mean ± SD ([1]; 4 h minus 0, group mean ± SD, 5 mg/kg orally) | inhibition in vivo at 5 mg/kg ([1]; po, 4 h, read-out: % Inhibition of oedema volume, 4 h, individual rats 1-3, 5 mg/kg orally) | inhibition in vivo at 5 mg/kg ([1]; po, 4 h, read-out: % Inhibition of oedema volume, Mean ± SD, 4 h, group mean ± SD, 5 mg/kg orally) | Volume of oedema (ml) 4h, Mean ± SD ([1]; po, 5 mg/kg, 4 h) | Gross appearance of gastric mucosa (ulcerogenic potential) (gastric mucosa) | % inhibition of paw oedema compared with reference drugs (in words) ([1]; 4 h, 5 mg/kg orally, comparison with celecoxib or diclofenac sodium) | inhibition in vivo at 5 mg/kg ([1]; po, 4 h, group mean ± SD, 5 mg/kg orally, read-out: % Inhibition of oedema volume, Mean ± SD) | inhibition in vivo at 5 mg/kg [1, 2] | % Relative potency (4h) celecoxib [1, 3] | % Relative potency (4h) diclofenac, Mean ± SD ([1]; group mean ± SD) | % Relative potency (4h) diclofenac ([1]; individual rats 1-3) | Gross appearance of gastric mucosa (ulcerogenic potential) (gastric mucosa; 60 mg/kg) | % Relative potency (4h) celecoxib, Mean ± SD ([1]; relative to % inhibition of celecoxib at 4 h, group mean ± SD) | Volume of oedema (ml) 0 ([1]; time 0, individual rats 1-3, 5 mg/kg orally, 5 mg/kg)
 |  | Cc1ccc(-c2cc(C(F)(F)F)nn2-c2ccc(S(N)(=O)=O)cc2)cc1 [Celecoxib, reference compound] | 36.33 ± 2.05% | 1.38^a ± 0.06 | 35.2% | 36.4% | 5.69^a ± 0.02 ml | no ulceration |  |  |  |  |  |  |  |  | 
3.05 ± 0.067 µM | 10.3 ± 0.1 µM | Cc1ccc(C(C)C)c(O)c1C=NNC(=O)c1cc(-c2ccccc2)n[nH]1 [Compound 4a, N'-(2-Hydroxy-3-isopropyl-6-methylbenzylidene)-3-phenyl-1H-pyrazole-5-carbohydrazide] |  |  |  |  |  |  | double % inhibition exhibited by Celecoxib | 81.9% | 84.2% | 239.70% and 192.90% and 244.0% | 156.4 ± 20.52% | 178.10% and 137.30% and 153.80% | No gross ulceration |  | 
1.84 ± 0.06 µM | 11.8 ± 0.15 µM | Cc1ccc(C(C)C)c(O)c1C=NNC(=O)c1cc(-c2ccc(Br)cc2)n[nH]1 [Compound 4b, 3-(4-Bromophenyl)-N'-(2-hydroxy-3-isopropyl-6-methylbenzylidene)-1H-pyrazole-5-carbohydrazide] |  |  |  |  |  |  |  |  | 55.9% | 159.0% and 136.90% and 150.70% | 103.5 ± 12.68% | 118.10% and 97.50% and 95.0% | No gross ulceration | 148.9 ± 11.16% | 5.15 mL
